The text below walks through data of patent US9540323B2 (BRISTOL-MYERS SQUIBB COMPANY, priority 2012, dated 2017).

Assay [1] concerns the target cloned human P2Y1 receptors (Homo sapiens (Human), UniProt P47900). As to the kind of experiment: Binding Assay B - Scintillation Proximity Assay (SPA) for P2Y1 binding, [33P] 2MeS-ADP. To be noted: SPA, 0.3 nM [33P] 2MeS-ADP, Cheng-Prusoff; read-out: P2Y1 Ki (nM) using binding assay B. How it is done: Binding Assay B—Scintillation Proximity Assay (SPA) for P2Y1 Binding
A SPA membrane binding assay was used to identify inhibitors of [^33P] […] Reactions were allowed to proceed to completion at room temperature for 1 hour followed by centrifugation of the plate for 5 min. About 40 μL of the aqueous solution was aspirated. Plates were sealed and the [^33P]

Assay [2] has as its system human platelet rich plasma (PRP). Briefly: ADP induced platelet aggregation assay. The following applies: Homo sapiens, Platelet, 5 min, read-out: PA IC50 (μM) @ 10 μM ADP, human PRP, 10 μM ADP, AUC at 5 minute.

cloned human P2Y1 receptors, sequence (P47900 whole entry): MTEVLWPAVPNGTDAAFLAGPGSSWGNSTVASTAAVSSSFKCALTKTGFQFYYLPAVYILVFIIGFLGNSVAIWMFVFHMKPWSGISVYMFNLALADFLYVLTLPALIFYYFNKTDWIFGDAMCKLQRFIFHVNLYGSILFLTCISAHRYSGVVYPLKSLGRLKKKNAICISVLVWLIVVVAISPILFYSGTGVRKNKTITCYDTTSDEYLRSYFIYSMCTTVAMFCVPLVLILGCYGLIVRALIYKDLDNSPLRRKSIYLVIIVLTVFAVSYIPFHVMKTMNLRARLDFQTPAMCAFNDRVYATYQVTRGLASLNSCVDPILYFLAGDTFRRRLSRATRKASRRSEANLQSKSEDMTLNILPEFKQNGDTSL

Turning to `CC1(C)CN(c2ccccc2NC(=O)Nc2ccc(OC(F)(F)F)cc2)c2c(O)ccc(-c3ccc(Cl)cc3)c21` [Example 205, 1-(2-(4-(4-Chlorophenyl)-7-hydroxy-3,3-dimethylindolin-1-yl)phenyl)-3-(4-(trifluoromethoxy)phenyl)urea], the Ki (usually the dissociation constant of the complex between target and ligand, obtained from inhibition or displacement) in assay [1] is 6.7 nM. Moreover, the half-maximal inhibitory concentration (IC50) (as a rule, the concentration needed to halve the response being measured) in assay [2] came to 0.14 µM.
In the same order, the values of `CC(C)(C)CN1CCC(c2ccc(NC(=O)Nc3ccccc3N3CC(C)(C)c4c(C(F)(F)F)ccc(O)c43)cc2)CC1` [Example 2, 1-(2-(7-Hydroxy-3,3-dimethyl-4-(trifluoromethyl)indolin-1-yl)phenyl)-3-(4-(1-neopentylpiperidin-4-yl)phenyl)urea] are 3.4 nM and 0.13 µM.
With `CC1(C)CN(c2ccccc2NC(=O)Nc2ccc(OC(F)(F)F)cc2)c2c(O)cc(F)c(-c3ccc(Cl)cc3F)c21` [Example 236, 1-(2-(4-(4-Chloro-2-fluorophenyl)-5-fluoro-7-hydroxy-3,3-dimethylindolin-1-yl)phenyl)-3-(4-(trifluoromethoxy)phenyl)urea], the inhibition constant (Ki) in assay [1] worked out at 17 nM. Also, the IC50 in assay [2] is 0.23 µM.
In the same order, the values of `CC1(C)CN(c2ccc(F)cc2NC(=O)Nc2nc3ccc(F)cc3s2)c2c(O)ccc(C(F)(F)F)c21` [Example 63, 1-(5-Fluoro-2-(7-hydroxy-3,3-dimethyl-4-(trifluoromethyl)indolin-1-yl)phenyl)-3-(6-fluorobenzo[d]thiazol-2-yl)urea] are 20.8 nM and 0.18 µM.
Regarding `CC1(C)CN(c2ccccc2NC(=O)Nc2nc3ccc(F)nc3s2)c2c(O)cc(F)c(-c3nc4cc(Cl)ccc4s3)c21` [Example 157, 1-(2-(4-(5-Chlorobenzo[d]thiazol-2-yl)-5-fluoro-7-hydroxy-3,3-dimethylindolin-1-yl)phenyl)-3-(5-fluorothiazolo[5,4-b]pyridin-2-yl)urea], in assay [1], the inhibitory constant (Ki) was determined as 18.7 nM. Also, the IC50 in assay [2] came to 0.28 µM.
Turning to `CC1(C)CN(c2ccccc2NC(=O)Nc2ccc(OC(F)(F)F)cc2)c2c(O)ccc(-c3nc4c(CO)cccc4o3)c21` [Example 106, 1-(2-(7-Hydroxy-4-(4-(hydroxymethyl)benzo[d]oxazol-2-yl)-3,3-dimethylindolin-1-yl)phenyl)-3-(4-(trifluoromethoxy)phenyl) urea], the Ki in assay [1] was determined as 364 nM. The IC50 in assay [2] was determined as 3.28 µM.
As to `CC1(C)CN(c2ccccc2NC(=O)Nc2ccc(OC(F)(F)F)cc2)c2c(O)cc(F)c(-c3ccnc(F)c3)c21` [Example 190, 1-(2-(5-Fluoro-4-(2-fluoropyridin-4-yl)-7-hydroxy-3,3-dimethylindolin-1-yl)phenyl)-3-(4-(trifluoromethoxy)phenyl)urea], in assay [1], the Ki amounted to 10.6 nM. The concentration for half-maximal inhibition (IC50) in assay [2] was 0.48 µM.
For `CC1(C)CN(c2cc(F)ccc2NC(=O)Nc2ccc(F)cc2F)c2c(O)ccc(C(F)(F)F)c21` [Example 59, 1-(2,4-Difluorophenyl)-3-(4-fluoro-2-(7-hydroxy-3,3-dimethyl-4-(trifluoromethyl)indolin-1-yl)phenyl)urea], the Ki in assay [1] came to 5.7 nM. For the same molecule, the concentration for half-maximal inhibition (IC50) in assay [2] was found to be 0.24 µM.
Consider `CCC1(CC)CN(c2ccccc2NC(=O)Nc2ccc(C3CCCN3CC(C)(C)C)cc2)c2c(O)ccc(F)c21` (stereo not shown) [Example 29, 1-(2-(3,3-Diethyl-4-fluoro-7-hydroxyindolin-1-yl)phenyl)-3-(4-(1-neopentylpyrrolidin-2-yl)phenyl)urea], for which, in assay [1], the Ki was 3.6 nM. For the same molecule, the half-inhibitory concentration (IC50) in assay [2] is 0.3 µM.
In the same order, the values of `CC1(C)CN(c2ccccc2NC(=O)Nc2nc3ccc(Cl)cc3s2)c2c(O)c(F)cc(Br)c21` [Example 66, 1-(2-(4-Bromo-6-fluoro-7-hydroxy-3,3-dimethylindolin-1-yl)phenyl)-3-(6-chlorobenzo[d]thiazol-2-yl)urea] are 21.3 nM and 0.75 µM.
The matching figures for `CC(C)Cn1cc(-c2c(F)cc(O)c3c2C(C)(C)CN3c2ccccc2NC(=O)Nc2ccc(OC(F)(F)F)cc2)cn1` [Example 184, 1-(2-(5-Fluoro-7-hydroxy-4-(1-isobutyl-1H-pyrazol-4-yl)-3,3-dimethylindolin-1-yl)phenyl)-3-(4-(trifluoromethoxy)phenyl)urea]: 10.7 nM and 0.26 µM.
The matching figures for `CCOC(=O)C1(C)CN(c2ccccc2NC(=O)Nc2nc3ccc(F)cc3s2)c2c(O)ccc(Cl)c21` (stereo not shown) [Example 76, Ethyl 4-chloro-1-(2-(3-(6-fluorobenzo[d]thiazol-2-yl)ureido)phenyl)-7-hydroxy-3-methylindoline-3-carboxylate]: 11.5 nM and 0.4 µM.
`CC1(C)CN(c2ccccc2NC(=O)Nc2ccc(OC(F)(F)F)cc2)c2c(O)ccc(-c3nc4ccc(F)cc4o3)c21` [Example 92, 1-(2-(4-(6-Fluorobenzo[d]oxazol-2-yl)-7-hydroxy-3,3-dimethylindolin-1-yl)phenyl)-3-(4-(trifluoromethoxy)phenyl)urea]: the Ki in assay [1] came to 36.6 nM. In addition, the half-inhibitory concentration (IC50) in assay [2] came out at 0.2 µM.
In the same order, the values of `CC1(C)CN(c2ccccc2NC(=O)Nc2nc3ccc(F)cc3s2)c2c(O)ccc(-c3nc4ccc(F)cc4o3)c21` [Example 101, 1-(2-(4-(6-Fluorobenzo[d]oxazol-2-yl)-7-hydroxy-3,3-dimethylindolin-1-yl)phenyl)-3-(6-fluorobenzo[d]thiazol-2-yl)urea] are 31.9 nM and 0.67 µM.
With `CCC1(CC)CN(c2ccccc2NC(=O)Nc2ccc(C3CCN(CC(C)C)CC3)cc2)c2c(O)ccc(Cl)c21` [Example 50, 1-(2-(4-Chloro-3,3-diethyl-7-hydroxyindolin-1-yl)phenyl)-3-(4-(1-isobutylpiperidin-4-yl)phenyl)urea], in assay [1], the Ki amounted to 6.6 nM. In assay [2], the IC50 worked out at 0.86 µM.
The matching figures for `CCC1(CC)CN(c2ccccc2NC(=O)Nc2nc3ccc(Cl)cc3s2)c2c(O)cccc21` [Example 9, 1-(6-Chlorobenzo[d]thiazol-2-yl)-3-(2-(3,3-diethyl-7-hydroxyindolin-1-yl)phenyl)urea]: 14.2 nM and 0.39 µM.
The matching figures for `CC1(C)CN(c2ccccc2NC(=O)Nc2ccc(OC(F)(F)F)cc2)c2c(O)c(F)cc(-c3ccc(C(F)(F)F)cc3)c21` [Example 229, 1-(2-(6-Fluoro-7-hydroxy-3,3-dimethyl-4-(4-(trifluoromethyl)phenyl)indolin-1-yl)phenyl)-3-(4-(trifluoromethoxy)phenyl)urea]: 15.3 nM and 0.22 µM.
In the same order, the values of `Cc1cccc2oc(-c3ccc(O)c4c3C(C)(C)CN4c3ccccc3NC(=O)Nc3ccc(OC(F)(F)F)cc3)nc12` [Example 90, 1-(2-(7-Hydroxy-3,3-dimethyl-4-(4-methylbenzo[d]oxazol-2-yl)indolin-1-yl)phenyl)-3-(4-(trifluoromethoxy)phenyl)urea] are 56.7 nM and 0.43 µM.
As to `CC1(C)CN(c2ccc(F)cc2NC(=O)Nc2ccc(F)cc2F)c2c(O)ccc(C(F)(F)F)c21` [Example 60, 1-(2,4-Difluorophenyl)-3-(5-fluoro-2-(7-hydroxy-3,3-dimethyl-4-(trifluoromethyl)indolin-1-yl)phenyl)urea], the Ki in assay [1] came out at 10.6 nM. Besides, in assay [2], the IC50 amounted to 0.62 µM.
In the same order, the values of `CC(C)c1noc(-c2c(F)cc(O)c3c2C(C)(C)CN3c2ccccc2NC(=O)Nc2ccc(OC(F)(F)F)cc2)n1` [Example 256, 1-(2-(5-Fluoro-7-hydroxy-4-(3-isopropyl-1,2,4-oxadiazol-5-yl)-3,3-dimethylindolin-1-yl)phenyl)-3-(4-(trifluoromethoxy)phenyl)urea] are 6.6 nM and 0.76 µM.
In the case of `CC1(C)CN(c2ccccc2NC(=O)Nc2ccc(OC(F)(F)F)cc2)c2c(O)ccc(-c3nc4ccc(Cl)cc4o3)c21` [Example 91, 1-(2-(4-(6-Chlorobenzo[d]oxazol-2-yl)-7-hydroxy-3,3-dimethylindolin-1-yl)phenyl)-3-(4-(trifluoromethoxy)phenyl)urea], the inhibition constant (Ki) in assay [1] came to 65.1 nM. In addition, the IC50 in assay [2] amounted to 0.33 µM.
The matching figures for `CCC1(CC)CN(c2ccccc2NC(=O)Nc2ccc(C3CCN(CC(C)C)CC3)cc2)c2c(O)ccc(C#N)c21` [Example 46, 1-(2-(4-Cyano-3,3-diethyl-7-hydroxyindolin-1-yl)phenyl)-3-(4-(1-isobutylpiperidin-4-yl)phenyl)urea]: 9.5 nM and 1 µM.
The matching figures for `CC1(C)CN(c2ccccc2NC(=O)Nc2ccc(OC(F)(F)F)cc2)c2c(O)ccc(-c3ccc(F)cc3)c21` [Example 193, 1-(2-(4-(4-Fluorophenyl)-7-hydroxy-3,3-dimethylindolin-1-yl)phenyl)-3-(4-(trifluoromethoxy)phenyl)urea]: 6.9 nM and 0.12 µM.
In the same order, the values of `CC1(C)CN(c2ccccc2NC(=O)Nc2nc3ccc(Cl)nc3s2)c2c(O)cc(F)c(-c3nc4cc(F)ccc4s3)c21` [Example 153, 1-(5-Chlorothiazolo[5,4-b]pyridin-2-yl)-3-(2-(5-fluoro-4-(5-fluorobenzo[d]thiazol-2-yl)-7-hydroxy-3,3-dimethylindolin-1-yl)phenyl)urea] are 15.4 nM and 0.23 µM.
Consider `CC1(C)CN(c2ccccc2NC(=O)Nc2nc3ccc(F)cc3s2)c2c(O)ccc(C(F)(F)F)c21` [Example 18, 1-(6-Fluorobenzo[d]thiazol-2-yl)-3-(2-(7-hydroxy-3,3-dimethyl-4-(trifluoromethyl)indolin-1-yl)phenyl)urea], for which, in assay [1], the inhibition constant (Ki) stood at 12.4 nM. The 50% inhibitory concentration (IC50) in assay [2] is 0.17 µM.
The matching figures for `CC1(C)CN(c2ccccc2NC(=O)Nc2nc3ccc(F)nc3s2)c2c(O)cc(F)c(-c3ccc(F)cc3)c21` [Example 233, 1-(2-(5-Fluoro-4-(4-fluorophenyl)-7-hydroxy-3,3-dimethylindolin-1-yl)phenyl)-3-(5-fluorothiazolo[5,4-b]pyridin-2-yl)urea]: 9.4 nM and 0.31 µM.
